Test results from BindingDB's records for patent US20250195521 (Revolution Medicines, 2025).

Legend:
GTPase NRas [Q61K] = GTPase NRas [Q61K] (Homo sapiens, UniProt P01111, Q61K)
GTPase KRas [G12C] = GTPase KRas [G12C] (Homo sapiens, UniProt P01116, G12C)
GTPase KRas [Q61H] = GTPase KRas [Q61H] (Homo sapiens, UniProt P01116, Q61H)
GTPase NRas [G12C] = GTPase NRas [G12C] (Homo sapiens, UniProt P01111, G12C)
GTPase NRas [Q61R] = GTPase NRas [Q61R] (Homo sapiens, UniProt P01111, Q61R)
GTPase KRas = GTPase KRas (Homo sapiens, UniProt P01116)
Sequence of GTPase KRas (P01116 whole entry): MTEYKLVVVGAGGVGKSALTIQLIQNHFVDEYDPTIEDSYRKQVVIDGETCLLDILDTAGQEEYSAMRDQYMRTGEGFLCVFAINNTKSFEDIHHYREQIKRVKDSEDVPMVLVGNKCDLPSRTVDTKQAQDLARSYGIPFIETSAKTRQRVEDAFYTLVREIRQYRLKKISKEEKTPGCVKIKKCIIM

GTPase NRas = GTPase NRas (Homo sapiens, UniProt P01111)
Sequence of GTPase NRas (P01111 whole entry): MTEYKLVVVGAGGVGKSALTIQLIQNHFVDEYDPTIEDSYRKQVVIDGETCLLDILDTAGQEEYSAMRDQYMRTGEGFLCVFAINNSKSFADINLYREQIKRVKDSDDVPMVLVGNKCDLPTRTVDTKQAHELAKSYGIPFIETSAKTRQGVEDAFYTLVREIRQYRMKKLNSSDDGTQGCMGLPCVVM

GTPase KRas [G12D] = GTPase KRas [G12D] (Homo sapiens, UniProt P01116, G12D)
Sequence of GTPase KRas [G12D] (P01116 whole entry G12D): as the sequence (P01116 whole entry) above, with G12D counted along it

GTPase KRas [G13C] = GTPase KRas [G13C] (Homo sapiens, UniProt P01116, G13C)
Sequence of GTPase KRas [G13C] (P01116 whole entry G13C): as the sequence (P01116 whole entry) above, with G13C counted along it

GTPase KRas [G12V] = GTPase KRas [G12V] (Homo sapiens, UniProt P01116, G12V)
Sequence of GTPase KRas [G12V] (P01116 whole entry G12V): as the sequence (P01116 whole entry) above, with G12V counted along it

kras g13d = kras g13d (Homo sapiens, UniProt P01116, G13D)
Sequence of kras g13d (P01116 whole entry G13D): as the sequence (P01116 whole entry) above, with G13D counted along it

Sequence of GTPase NRas [G12C] (P01111 whole entry G12C): as the sequence (P01111 whole entry) above, with G12C counted along it
Sequence of GTPase KRas [G12C] (P01116 whole entry G12C): as the sequence (P01116 whole entry) above, with G12C counted along it
Sequence of GTPase NRas [Q61R] (P01111 whole entry Q61R): as the sequence (P01111 whole entry) above, with Q61R counted along it
Sequence of GTPase NRas [Q61K] (P01111 whole entry Q61K): as the sequence (P01111 whole entry) above, with Q61K counted along it
Sequence of GTPase KRas [Q61H] (P01116 whole entry Q61H): as the sequence (P01116 whole entry) above, with Q61H counted along it

Row | Structure (SMILES) | IC50 (GTPase NRas [Q61K]) | IC50 (GTPase KRas [G12C]) [nM] | IC50 (GTPase KRas [Q61H]) | IC50 (GTPase NRas [G12C]) | IC50 (GTPase NRas [Q61R]) | IC50 (GTPase KRas) | IC50 (GTPase NRas) | IC50 (GTPase KRas [G12D]) | IC50 (GTPase KRas [G13C]) [nM] | IC50 (GTPase KRas [G12V]) | IC50 (kras g13d)
1 | CCn1c(-c2cccnc2[C@H](C)OC)c2c3cc(ccc31)-c1csc(n1)C[C@H](NC(=O)[C@H](C(C)C)N(C)C(=O)N1CCC[C@@H](N(C)C)CC1)C(=O)N1CCC[C@H](N1)C(=O)OCC(C)(C)C2 [US20250195521, Example A494] | in the range around 55 nM | 55 | in the range around 55 nM | in the range around 55 nM | in the range around 55 nM | in the range around 55 nM | in the range around 55 nM | in the range around 55 nM | – | – | –
2 | CCn1c(-c2cccnc2[C@H](C)OC)c2c3cc(ccc31)-c1cc(O)cc(c1)C[C@H](NC(=O)C1[C@H]3COC[C@@H]13)C(=O)N1CCC[C@H](N1)C(=O)OCC(C)(C)C2 (stereo not given in full) [US20250195521, Example A253] | – | – | – | – | – | – | – | > 10000 nM | – | – | –
3 | CCN1C[C@@H](C(=O)N(C)[C@H](C(=O)N[C@H]2Cc3cc(O)cc(c3)-c3ccc4c(c3)c(c(-c3cnccc3COC)n4CC)CC(C)(C)COC(=O)[C@@H]3CCCN(N3)C2=O)C(C)C)CC1=O [US20250195521, Example A16] | – | 55 | – | in the range around 550 nM | – | in the range around 550 nM | – | in the range around 5500 nM | 550 | in the range around 550 nM | in the range around 550 nM
4 | CCn1c(-c2cccnc2[C@H](C)OC)c2c3cc(ccc31)-c1cc(O)cc(c1)C[C@H](NC(=O)[C@H](C(C)C)N(C)C(=O)[C@H]1CCN(C(=O)OC(C)C)C1)C(=O)N1CCC[C@H](N1)C(=O)OCC(C)(C)C2 [US20250195521, Example A117] | – | – | – | – | – | – | – | – | – | > 10000 nM | –
5 | CCn1c(-c2cccnc2[C@H](C)OC)c2c3cc(ccc31)-c1csc(n1)C[C@H](NC(=O)[C@H](C(C)C)N(C)C(=O)OC)C(=O)N1CCC[C@H](N1)C(=O)OCC(C)(C)C2 [US20250195521, Example A138] | in the range around 550 nM | 550 | in the range around 550 nM | in the range around 550 nM | in the range around 550 nM | in the range around 550 nM | in the range around 550 nM | in the range around 5500 nM | 550 | in the range around 550 nM | in the range around 5500 nM
6 | CCn1c(-c2cnccc2COC)c2c3cc(ccc31)-c1cc(O)cc(c1)C[C@H](NC(=O)[C@H](C(C)C)N(C)C(=O)[C@@H]1NC[C@@H]3C[C@@H]31)C(=O)N1CCC[C@H](N1)C(=O)OCC(C)(C)C2 [US20250195521, Example A78] | – | 550 | – | in the range around 550 nM | – | in the range around 550 nM | – | in the range around 550 nM | 55 | in the range around 550 nM | in the range around 550 nM
